{
  "source": "patent US12329730B2",
  "about": "“Thermoresponsive hydrogel containing polymer microparticles for controlled drug delivery” (UNIVERSITY OF PITTSBURGH—OF THE COMMONWEALTH SYSTEM OF …, priority 2017, dated 2025)",
  "origin": "cited, not measured here",
  "test_system": "Streptococcus pneumoniae and Haemophilus influenzae",
  "details": "Jacobs et al. 1999",
  "data": [
    {"compound": "O=C(O)c1cn(C2CC2)c2cc(N3CCNCC3)c(F)cc2c1=O", "note": "[ciprofloxacin]", "values": [
      {"measurement": "minimum inhibitory concentration (MIC)", "result": 2, "unit": "µg/mL"}
    ]}
  ]
}
